By Kd is commonly meant the equilibrium constant for the complex coming apart. Low values mean higher affinity, high ones lower affinity. One may read the IC50 as the concentration needed to halve the response being measured. Low readings indicate greater potency, high ones weaker potency.

For data set [1], the system named is T1, SNU387Lo.
T1 construct: SNU-387 hepatocellular carcinoma, SALL4 low
In words: cells. On the set-up: species or system SNU-387, SNU-398 and SNU-387 isogenic lines; CellTiter-Glo luminescence cell viability, dose-response EC50. To be noted: 72 h. The procedure: (§1) Empty vector, SALL4A, and SALL4B expressing isogenic cell lines were generated by transducing the SALL4 negative hepatocellular carcinoma SNU-387 cells with empty vector, SALL4A, or SALL4B FUW-Luc-mCh-puro lentiviral constructs. Cells were plated in 50 μl of RPMI culture media in 384-well white flat-bottom plates (Corning) and incubated at 37 °C in a humidified atmosphere of 5% CO2 overnight. Cell numbers per well were 1500 for SNU-398, and 750 for SNU-387 and SNU-387 isogenic lines. After overnight incubation, varying concentrations of compounds 1–80 were added to cells with multichannel electronic pipettes (Rainin). Cells were then incubated for 72 h at 37 °C in a humidified atmosphere of 5% CO2 before 10 μl of CellTiter-Glo reagent was added to the wells with the MultiFlo Microplate Dispenser (BioTek). Cells were incubated at room temperature for a minimum of 10 min, after which luminescence readings were recorded by an Infinite M1000 Microplate Reader (Tecan). Each data point was performed in n = 3 independent cell cultures. IC50 of compounds were determined using nonlinear regression fitting from Prism (GraphPad). Cell-based screening was next employed to evaluate the growth inhibitory activity of the test compounds against SALL4 expressing malignant cells. SNU398, a liver cancer cell line with high endogenous levels of SALL4, and SNU387, a liver cancer cell line with undetectable levels of SALL4, were used for comparison. Cells were incubated with the test compound at 1 μM for 72 h, after which cell viability was assessed. […] Next, we carried out dose escalation studies on all SH compounds to deduce their EC50 values on SNU387 and SNU398. In order to interrogate the effects of compounds targeting SALL4, we created isogenic cells by overexpressing SALL4A (SNU387-TgSALL4A) or SALL4B (SNU387-TgSALL4B) in SNU387 cells (Tan et al, [2019]) (Fig. 2B, and Dataset EV4). The EC50 of SH2, SH6, and SH7 in SALL4 high SNU398 cells were 0.4 μM, 0.5 μM, and 0.3 μM, respectively. In contrast, the EC50 values of the same compounds were more than 10 μM on SALL4 low SNU387 cells.

The test system of data set [2] is T2, SNU398Hi.
T2 construct: SNU-398 hepatocellular carcinoma, SALL4 high
In words: cells. More on the design: species or system SNU-387, SNU-398 and SNU-387 isogenic lines; CellTiter-Glo luminescence cell viability, dose-response EC50. To be noted: 72 h. The procedure:
as §1

The test system of data set [3] is T3, SNU387-TgSALL4AAHi.
T3 construct: SNU-387 overexpressing SALL4A
Briefly: cells. The note with it: 72 h. On the set-up: species or system SNU-387, SNU-398 and SNU-387 isogenic lines; CellTiter-Glo luminescence cell viability, dose-response EC50. As to the method:
as §1

Data set [4] has as its system T4, SNU387-EvLo.
T4 construct: SNU-387 empty vector control
In words: cells. On the set-up: species or system SNU-387, SNU-398 and SNU-387 isogenic lines; CellTiter-Glo luminescence cell viability, dose-response EC50. The note with it: 72 h. As to the method:
as §1

In data set [5] the test system is T5, SNU387-TgSALL4BBHi.
T5 construct: SNU-387 overexpressing SALL4B
In words: cells. On the set-up: species or system SNU-387, SNU-398 and SNU-387 isogenic lines; CellTiter-Glo luminescence cell viability, dose-response EC50. To be noted: 72 h. As to the method: as §1

In data set [6] the test system is T6, SNU387-Ev (SNU387 transduced with empty vector).
T6 construct: empty vector FUW-Luc-mCh-puro
Briefly: cells. On the set-up: species or system SNU398 and SNU387 isogenic lines; CellTiter-Glo luminescence viability dose response in 384-well plates, nonlinear regression. The note with it: Homo sapiens, SNU-387; 72 h cell viability; read-out: EC50 / SNU387-EvLo. The procedure:
as §1

For data set [7], the system named is T7, SNU387-TgSALL4A.
T7 construct: SNU387 overexpressing SALL4A (FUW-Luc-mCh-puro)
Briefly: cells. More on the design: species or system SNU398 and SNU387 isogenic lines; CellTiter-Glo luminescence viability dose response in 384-well plates, nonlinear regression. The note with it: 72 h cell viability; read-out: EC50 / SNU387-TgSALL4AAHi. As to the method: as §1

Data set [8] deals with SNU387. In words: cells. To be noted: Homo sapiens, SNU-387; 72 h cell viability; read-out: EC50 / SNU387Lo. More on the design: species or system SNU398 and SNU387 isogenic lines; CellTiter-Glo luminescence viability dose response in 384-well plates, nonlinear regression. As to the method: as §1
In data set [9] the test system is T8, SNU387-TgSALL4B.
T8 construct: SNU387 overexpressing SALL4B (FUW-Luc-mCh-puro)
Briefly: cells. On the set-up: species or system SNU398 and SNU387 isogenic lines; CellTiter-Glo luminescence viability dose response in 384-well plates, nonlinear regression. The note with it: 72 h cell viability; read-out: EC50 / SNU387-TgSALL4BBHi. As to the method: as §1

Data set [10] concerns SNU398. In words: cells. On the set-up: species or system SNU387, SNU398 and SNU387 isogenic lines; CellTiter-Glo luminescence viability dose response in 384-well plates, nonlinear regression. The note with it: Homo sapiens, SNU-398; 72 h cell viability; read-out: EC50 / SNU398Hi. The procedure:
as §1

Data set [11] deals with T9, CUL4A (Homo sapiens, UniProt Q13619).
T9 construct: Recombinant CUL4A (Creative Biomart CUL4A-690H)
T9 sequence (Q13619 whole entry): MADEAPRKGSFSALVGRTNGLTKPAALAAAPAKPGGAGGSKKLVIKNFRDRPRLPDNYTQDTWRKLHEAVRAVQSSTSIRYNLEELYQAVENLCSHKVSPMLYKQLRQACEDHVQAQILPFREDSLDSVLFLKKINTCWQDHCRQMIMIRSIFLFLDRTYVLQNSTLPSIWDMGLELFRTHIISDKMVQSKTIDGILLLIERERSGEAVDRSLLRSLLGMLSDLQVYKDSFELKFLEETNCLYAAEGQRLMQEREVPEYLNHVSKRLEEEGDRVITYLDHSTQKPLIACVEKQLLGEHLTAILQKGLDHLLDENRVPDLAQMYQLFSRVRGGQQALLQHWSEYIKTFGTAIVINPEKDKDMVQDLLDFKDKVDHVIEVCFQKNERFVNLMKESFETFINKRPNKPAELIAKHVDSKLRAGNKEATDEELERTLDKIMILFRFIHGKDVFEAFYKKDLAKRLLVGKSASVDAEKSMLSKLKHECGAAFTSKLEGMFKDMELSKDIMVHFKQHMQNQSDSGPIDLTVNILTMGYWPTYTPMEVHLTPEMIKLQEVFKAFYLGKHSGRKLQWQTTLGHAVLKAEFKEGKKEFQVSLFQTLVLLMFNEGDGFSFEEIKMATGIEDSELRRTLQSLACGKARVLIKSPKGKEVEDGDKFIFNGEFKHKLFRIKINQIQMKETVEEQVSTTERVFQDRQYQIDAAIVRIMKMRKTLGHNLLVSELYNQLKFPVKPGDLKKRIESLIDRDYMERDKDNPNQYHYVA
Briefly: SPR (Biacore, immobilized CUL4A); supported by in-cell CETSA. The data set is classed as binding. For orientation: SPR reads the build-up and loss of mass on a sensor chip optically.

Data set [12] has as its target T10, hERG potassium channel (Homo sapiens, UniProt Q12809).
T10 construct: gene KCNH2
Briefly: hERG channel block concentration-response. The data set is classed as cell-based. For orientation: Block of hERG is tested as a sign of cardiac risk.

Data set [13] addresses T11, CRBN (cereblon) (Homo sapiens, UniProt Q96SW2).
T11 construct: endogenous CRBN in SNU398 cells
Briefly: in-cell CETSA only ([…] SH6). The data set is classed as cell-based.

Data set [14] deals with T12, SALL4 ZFC4 (human, UniProt Q9UJQ4).
T12 sequence: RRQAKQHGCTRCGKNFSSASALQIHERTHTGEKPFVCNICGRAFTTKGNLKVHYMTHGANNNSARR
Briefly: X-ray crystallography (2.1 A); Zn2+; 500 uM protein with 750 uM DNA; Crystallization: protein in 20 mM HEPES pH 7.5, 200 mM NaCl, 0.5 mM TCEP, 1 mM DTT, 10 uM ZnCl2; mixed with equal volume of 30% PEG3350, 0.04 M NH4SO4, BisTris. To be noted: protein: recombinant; tags: N-terminal GST, removed with thrombin (pGEX4T1); chain copies: 2; blunt.

T10 sequence (Q12809 whole entry): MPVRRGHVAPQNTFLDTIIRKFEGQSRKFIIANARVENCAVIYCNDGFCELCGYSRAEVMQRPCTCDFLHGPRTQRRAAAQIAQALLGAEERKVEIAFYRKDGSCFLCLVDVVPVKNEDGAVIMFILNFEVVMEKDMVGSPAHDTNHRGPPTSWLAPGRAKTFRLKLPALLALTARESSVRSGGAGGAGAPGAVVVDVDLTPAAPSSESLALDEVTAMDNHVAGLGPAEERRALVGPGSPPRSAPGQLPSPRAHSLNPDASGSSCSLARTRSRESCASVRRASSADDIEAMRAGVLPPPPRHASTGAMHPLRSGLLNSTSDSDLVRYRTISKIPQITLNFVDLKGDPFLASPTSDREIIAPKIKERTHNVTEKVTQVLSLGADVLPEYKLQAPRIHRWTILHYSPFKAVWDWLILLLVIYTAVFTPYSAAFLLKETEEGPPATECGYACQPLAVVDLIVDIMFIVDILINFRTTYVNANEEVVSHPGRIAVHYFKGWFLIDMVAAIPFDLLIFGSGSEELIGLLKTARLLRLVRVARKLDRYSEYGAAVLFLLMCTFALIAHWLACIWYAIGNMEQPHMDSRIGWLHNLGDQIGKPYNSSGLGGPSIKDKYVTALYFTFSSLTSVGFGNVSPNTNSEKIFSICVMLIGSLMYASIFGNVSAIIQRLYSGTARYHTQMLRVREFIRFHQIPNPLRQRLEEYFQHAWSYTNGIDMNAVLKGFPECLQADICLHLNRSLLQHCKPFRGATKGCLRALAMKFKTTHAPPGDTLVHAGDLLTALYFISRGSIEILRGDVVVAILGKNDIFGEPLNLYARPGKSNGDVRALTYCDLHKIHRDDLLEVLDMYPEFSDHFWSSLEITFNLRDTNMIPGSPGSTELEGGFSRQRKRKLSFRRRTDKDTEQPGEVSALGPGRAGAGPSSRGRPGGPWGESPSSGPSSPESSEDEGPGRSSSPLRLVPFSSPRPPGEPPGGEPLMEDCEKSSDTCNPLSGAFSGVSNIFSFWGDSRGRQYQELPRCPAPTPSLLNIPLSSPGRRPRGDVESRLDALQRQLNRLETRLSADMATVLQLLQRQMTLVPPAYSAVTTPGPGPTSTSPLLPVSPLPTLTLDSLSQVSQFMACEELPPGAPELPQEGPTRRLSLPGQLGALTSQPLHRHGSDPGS
T11 sequence (Q96SW2 whole entry): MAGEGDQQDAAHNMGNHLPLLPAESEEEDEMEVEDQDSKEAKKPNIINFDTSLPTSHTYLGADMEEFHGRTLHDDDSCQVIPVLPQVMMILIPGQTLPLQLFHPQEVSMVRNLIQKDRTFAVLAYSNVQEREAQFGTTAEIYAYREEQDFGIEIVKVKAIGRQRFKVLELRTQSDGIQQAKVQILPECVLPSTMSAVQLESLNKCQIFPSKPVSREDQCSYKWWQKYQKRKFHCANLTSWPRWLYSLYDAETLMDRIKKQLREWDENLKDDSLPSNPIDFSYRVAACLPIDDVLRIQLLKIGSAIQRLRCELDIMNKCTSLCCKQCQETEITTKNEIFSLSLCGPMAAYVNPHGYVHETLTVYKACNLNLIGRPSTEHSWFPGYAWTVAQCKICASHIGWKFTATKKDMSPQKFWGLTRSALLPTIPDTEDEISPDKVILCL

Consider `Nc1ccc(F)cc1NC(=O)c1cccnc1Nc1ccc(F)cc1` [SH61], for which the EC50 in data set [1] is greater than 30 µM; in data set [2] it was greater than 30 µM; in [3], greater than 10 µM; in [4], greater than 10 µM; in data set [5], greater than 10 µM.

For the molecule `COc1cc(Nc2ncccc2/C=C/C(=O)Nc2cc(Cl)c(Cl)cc2N)cc(OC)c1OC` [SH7], the EC50 in data set [6] is greater than 10 µM; in data set [7], 1 µM; in data set [8] it was roughly 30 µM; in data set [9], 0.3 µM; in data set [10], 0.3 µM.

In the case of `Nc1ccc(F)cc1NC(=O)/C=C/c1cccnc1Nc1ccc(F)cc1` [SH21], the EC50 is greater than 30 µM in data set [8] and roughly 25 µM in data set [10].

As for `Nc1cc(Cl)c(Cl)cc1NC(=O)/C=C/c1cccnc1Nc1ccc(F)cc1` [SH23], the EC50 was roughly 25 µM in [8] and roughly 12 µM in data set [10].

With `Nc1cc(Cl)c(Cl)cc1NC(=O)c1cccnc1Nc1ccc(Cl)cc1` [SH79], the results for the EC50 in data set [8] and in data set [10] were greater than 30 µM and roughly 20 µM, respectively.

For the molecule `COc1cc(Nc2ncccc2C(=O)Nc2cc(Cl)ccc2N)cc(OC)c1OC` [SH46], the EC50 in data set [8] and in [10] was greater than 30 µM each time.

As to `COc1ccc(N)c(NC(=O)c2cccnc2Nc2ccc(Cl)cc2)c1` [SH74], the EC50 in data set [8] is greater than 30 µM; in data set [10] it was roughly 20 µM.

Turning to `Cc1cc(N)c(NC(=O)c2cccnc2Nc2ccc(Cl)cc2)cc1C` [SH76], the EC50 in [8] was greater than 30 µM; in data set [10], roughly 30 µM.

In the case of `Cc1cc(N)c(NC(=O)c2cccnc2Nc2ccc(C(F)(F)F)cc2)cc1C` [SH68], the EC50 in data set [8] and in data set [10] was greater than 30 µM in each case.

With `COc1cc(Nc2ncccc2C(=O)Nc2cc(Cl)c(Cl)cc2N)cc(OC)c1OC` [SH47], the EC50 is greater than 30 µM in [8] and roughly 18 µM in data set [10].

`Cc1cc(N)c(NC(=O)/C=C/c2cccnc2Nc2ccc(Cl)cc2)cc1C` [SH36]: the EC50 in data set [8] is greater than 30 µM; in data set [10] it was roughly 17 µM.

`COc1cc(Nc2ncccc2/C=C/C(=O)Nc2ccc(Cl)cc2N)cc(OC)c1OC` [SH6, (2E)-N-(2-amino-4-chlorophenyl)-3-[2-(3,4,5-trimethoxyanilino)pyridin-3-yl] prop-2-enamide] yielded a Kd in data set [11] of roughly 89 µM. In data set [12], this molecule gave an IC50 of 22.2 µM. The “in-cell CETSA only (50 μM SH6)” value in data set [13] is “higher thermal stability (less unfolding) of CUL4, CRBN, and SALL4 (Fig. 3F), implicating these proteins as binding partners of SH6”.

For the molecule `COc1cc(Nc2ncccc2/C=C/C(=O)Nc2cc(C)c(C)cc2N)cc(OC)c1OC` [SH4], the EC50 in data set [8] was greater than 30 µM; in data set [10], roughly 2 µM.

Take `COc1ccc(Nc2ncccc2C(=O)Nc2cc(F)ccc2N)cc1` [SH53]: the EC50 in data set [8] and in [10] was greater than 30 µM throughout.

Turning to `Cc1ccc(N)c(NC(=O)c2cccnc2Nc2ccc(Cl)cc2)c1` [SH75], the EC50 in data set [8] and in data set [10] was greater than 30 µM throughout.

With `COc1ccc(Nc2ncccc2C(=O)NO)cc1` [SH56], the EC50 in data set [8] and in data set [10] was greater than 30 µM throughout.

As for `COc1ccc(N)c(NC(=O)/C=C/c2cccnc2Nc2cc(OC)c(OC)c(OC)c2)c1` [SH2], the EC50 in [6] is greater than 10 µM; in [7], 1.3 µM; in data set [8], greater than 30 µM; in data set [9], 0.4 µM; in data set [10], 0.4 µM.

Take `COc1ccc(Nc2ncccc2/C=C/C(=O)Nc2cc(Cl)ccc2N)cc1` [SH14]: the EC50 in [8] is roughly 25 µM; in [10], roughly 7 µM.

`O=C(NO)c1cccnc1Nc1ccc(C(F)(F)F)cc1` [SH72]: the EC50 is greater than 30 µM in data set [8] and roughly 25 µM in data set [10].

As for `COc1ccc(N)c(NC(=O)c2cccnc2Nc2ccc(F)cc2)c1` [SH58], the EC50 in data set [8] and in [10] was greater than 30 µM throughout.

As for `COc1ccc(Nc2ncccc2/C=C/C(=O)NO)cc1` [SH16], the EC50 in [8] and in [10] was greater than 30 µM throughout.

B1: 12-mer TATTA SALL4 motif duplex (dsDNA)
DNA 1: CGAAATATTAGC
DNA 2: GCTAATATTTCG
B1: the binding result in data set [14] was “binds”.

The values above are taken from PMC12163085, “Targeting transcription factors through an IMiD independent zinc finger domain” (EMBO Molecular Medicine, 2025).
